“Also recorded” adds a separate entry of the source. Residues, ends and D or L forms follow the SMILES beside them.
Assays:
canonical Wnt signaling = assay: Activity assay (Example 1): TOPflash luciferase reporter in HEK (HEK293-superTOPflash) cells, receptor not specified; type: cell-based, human
Procedure: (§1) Human embryonic kidney (HEK) cells were used for screening. These cells have a luciferase construct stably transfected into the genome (see FIG. 2A), such that when the frizzled receptor is activated and β-catenin is increased, the luciferase is activated by transcription and light can be measured.
(§2) The peptides were tested by transfecting the frizzled-1 or the frizzled-2 receptor and addition of UM206(S-S) to the cell culture. For testing antagonistic activity, UM206 was added and the natural ligand Wnt3a was added, which is a natural stimulus for the canonical pathway.
Transfection and Luciferase Measurement:
Plate cells in 12-well plates
(§3) Day 2: Transfection 12-Well Plates • heat Fugene6 and DNA 15 minutes at RT • 2 ml serum-free medium in tube • add 3 μl fugene • add 2 μg DNA • incubate 30 minutes at RT • wash with PBS • add 50 μl transfectiemix • add 1 ml antibiotica-free medium
(§4) Day 3: Add Conditioned Medium or UM206
(§5) Day 4: Luciferase Activity Measurements • remove medium • wash with PBS • add 500 μl ⅕ lysisbuffer • shake for 60 minutes • centrifuge in tube • 20 μl lysaat and 50 μl luciferase in new tube for measurement • vortex • measure
(§6) Three areas of high homology that contained two cysteines are underlined (UM207), (UM208) and (UM206). In FIGS. 9B through 9D, the inhibitory effect of these three peptides on Wnt3a-induced luciferase activity in HEK293-superTOPflash is shown. […] Again, the peptides by themselves had no effect on the luciferase activity.
(§7) The cell lines were cultured in 75 cm^2 culture flasks (Corning, Schiphol, the Netherlands) in Dulbeco's modified essential medium with L-glutamine (2 mM), 10% fetal calf serum (Invitrogen, Merelbeke, Belgium), and 1% gentamycin (Sigma-Aldrich, Zwijndrecht, The Netherlands). Before starting the experiment, the cell lines were treated with plasmocin 25 μg/ml (Invivogen, Toulose, France) and tested with a mycoalert mycoplasma detection kit (Lonza, Rockland Me., USA). Cells were transiently transfected with Fugene6 (Roche, Indianapolis Ind., USA) with plasmid DNA, pcDNA3.1/hygro (Invitrogen) with frizzled-1/2/4 or Wnts 3a-5a or with pcDNA3.0 (Invitrogen) containing the β-catenin or frizzled-5 sequence. After transfection, the cells were cultured for 24 hours in conditioned medium, collected from the cultured L-cells, L-cells with Wnt3a or 5a (Invitrogen). At the same moment the antagonist was added.
For the luciferase experiments not in HEK cells, the cells were additionally transfected with a TOPflash construct, eight TCF/LEF binding sites cloned into the pTA-Luc vector. Luciferase activity was measured using luciferase assay system (Promega, Madison Wis., USA).

frizzled-1 (rFzd-1) = molecular target: T1, frizzled-1 (rFzd-1) (Rattus norvegicus, UniProt Q08463); assay: Activity assay: luciferase reporter in HEK superTOPflash cells transfected with frizzled-1; type: cell-based
T1 construct: expressed in transfected cells; host or cells: HEK293 superTOPflash (transient, Fugene6, pcDNA3.1/hygro)
T1 sequence (Q08463 69-641): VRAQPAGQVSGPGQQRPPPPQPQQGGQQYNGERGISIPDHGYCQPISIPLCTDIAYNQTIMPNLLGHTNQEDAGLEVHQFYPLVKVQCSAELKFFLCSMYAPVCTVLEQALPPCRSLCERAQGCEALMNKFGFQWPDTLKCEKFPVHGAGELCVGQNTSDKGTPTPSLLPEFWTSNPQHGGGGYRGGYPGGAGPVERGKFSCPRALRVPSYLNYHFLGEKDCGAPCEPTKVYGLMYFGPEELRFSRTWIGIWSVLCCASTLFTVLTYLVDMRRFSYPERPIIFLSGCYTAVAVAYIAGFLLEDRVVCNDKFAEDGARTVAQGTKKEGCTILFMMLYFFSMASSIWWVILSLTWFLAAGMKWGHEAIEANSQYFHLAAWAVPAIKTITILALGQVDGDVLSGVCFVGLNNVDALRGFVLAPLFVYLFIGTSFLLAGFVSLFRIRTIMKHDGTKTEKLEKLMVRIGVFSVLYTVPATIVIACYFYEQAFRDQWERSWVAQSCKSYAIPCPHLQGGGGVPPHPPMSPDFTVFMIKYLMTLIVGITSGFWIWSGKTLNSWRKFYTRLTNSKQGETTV
Procedure: as §1, §2, §3, §4, §5, §6
(§8) To determine the inhibitory constant of UM206-8, HEK293-superTOPflash cells were transfected with either rFzd-1 or -2 and incubated with Wnt3a (10^−9M) in the presence of increasing concentrations of either of the peptides (FIG. 15). For UM206, a biphasic inhibition curve was observed that was best fitted with a two-binding-state model.
as §7

frizzled-2 (rFzd-2) = molecular target: T2, frizzled-2 (rFzd-2) (Rattus norvegicus, UniProt Q08464); assay: Activity assay: luciferase reporter in HEK superTOPflash cells transfected with frizzled-2; type: cell-based
T2 construct: expressed in transfected cells; host or cells: HEK293 superTOPflash (transient, Fugene6, pcDNA3.1/hygro)
T2 sequence (Q08464 29-570): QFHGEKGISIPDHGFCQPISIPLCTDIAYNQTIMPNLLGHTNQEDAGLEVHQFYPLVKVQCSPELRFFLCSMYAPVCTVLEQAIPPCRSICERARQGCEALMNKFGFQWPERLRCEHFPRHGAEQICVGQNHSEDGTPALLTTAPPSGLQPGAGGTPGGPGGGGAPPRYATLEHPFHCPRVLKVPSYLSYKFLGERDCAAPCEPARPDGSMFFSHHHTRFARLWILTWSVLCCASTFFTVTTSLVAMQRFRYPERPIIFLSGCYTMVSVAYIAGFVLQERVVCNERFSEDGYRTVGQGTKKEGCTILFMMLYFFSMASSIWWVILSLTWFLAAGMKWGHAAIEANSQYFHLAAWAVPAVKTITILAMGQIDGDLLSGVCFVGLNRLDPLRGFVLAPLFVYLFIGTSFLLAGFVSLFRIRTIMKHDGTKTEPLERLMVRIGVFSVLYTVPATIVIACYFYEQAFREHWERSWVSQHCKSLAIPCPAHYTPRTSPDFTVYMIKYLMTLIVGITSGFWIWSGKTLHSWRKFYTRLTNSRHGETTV
Procedure: as §1, §2, §3, §4, §5, §6, §8, §7

hFzd-4 = molecular target: T3, hFzd-4 (Homo sapiens, UniProt Q9ULV1); assay: Receptor specificity: luciferase in HEK293 superTOPflash cells overexpressing hFzd-4; type: cell-based; conditions: UM206 1.10^−8 M
T3 construct: expressed in transfected cells; host or cells: HEK293 superTOPflash (transient, Fugene6, pcDNA3.1/hygro)
T3 sequence (Q9ULV1 37-537): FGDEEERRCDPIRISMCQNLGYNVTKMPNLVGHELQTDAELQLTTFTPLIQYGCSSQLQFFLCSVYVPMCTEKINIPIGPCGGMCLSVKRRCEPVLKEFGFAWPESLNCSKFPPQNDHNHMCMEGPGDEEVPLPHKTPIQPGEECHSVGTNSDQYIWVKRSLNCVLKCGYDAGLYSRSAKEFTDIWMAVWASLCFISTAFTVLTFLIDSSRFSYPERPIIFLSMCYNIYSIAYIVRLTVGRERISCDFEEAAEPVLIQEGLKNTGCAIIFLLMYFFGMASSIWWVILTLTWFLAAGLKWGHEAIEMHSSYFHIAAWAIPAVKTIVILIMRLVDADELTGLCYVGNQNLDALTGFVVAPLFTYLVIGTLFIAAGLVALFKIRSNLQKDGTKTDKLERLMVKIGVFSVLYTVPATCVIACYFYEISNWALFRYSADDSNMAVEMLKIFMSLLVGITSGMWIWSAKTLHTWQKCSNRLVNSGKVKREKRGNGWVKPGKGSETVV
Procedure: (§9) In FIG. 3, Panel E, the efficacy of UM206 to block the Wnt3a-induced activation of luciferase activity in HEK293 superTOPflash cells transfected with different Fzds is shown.
as §7

[1] = tested on: mouse and human Fzd-1 and -2; assay: Antagonism of activation of mouse and human Fzd-1 and -2 by Wnt3a (data not shown); type: cell-based
Text: as §9

C-FIT cells = assay: Differentiation assay (α-SMA, fibroblast to myofibroblast) in C-FIT cells; type: cell-based, rat
Text: For this assay, we used the same C-FIT cells as for the migration assay to study a second component of wound healing, namely, differentiation of fibroblasts into myofibroblasts. When wound healing starts, cells called fibroblasts migrate into the scar. These cells have no contractile properties; however, they can differentiate into myofibroblasts, which can actively contract. To study which signals influence the transition from fibroblast into myofibroblasts, we treated the C-FIT cells and harvested them for mRNA isolation. Next, we tested them for the presence of specific markers for myofibroblasts by reverse transcription of the mRNA and subsequent quantitative PCR analysis, which are absent in fibroblasts. One of those markers is α-smooth muscle actin, which makes the cells contract.
RNA was isolated using the Trizol method (Invitrogen). For the RT-PCR, the RNA was transcribed to cDNA with Iscript™ cDNA synthesis kit (Bio-Rad, Hercules Calif., USA), Syber green (Eurogentec, Ghent, Belgium) was used for the detection of cDNA levels and cyclophilin served as the house keeping gene. In Supplementary methods panel 5, the primer sequences are shown.

myocardial infarction = conditions: mouse, in vivo
Procedure: To this end, we administered UM206 subcutaneously by an osmotic minipump (6 microgram/kg/day); the control group was equipped with a saline-filled minipump. The minipumps were implanted at the time of infarct induction and lasted for up to five weeks.
Male Swiss mice were used (10-12 weeks of age, Charles River, Maastricht, The Netherlands). The animals were randomly included into the three different experimental groups. […] In the treatment study, either UM206 (6 μg/kg/day) or saline were administrated by an osmotic minipump (Alzet 2002 or 2006 for two- and five-week treatments, respectively; Alzet, Cupertino Calif., USA). MI was induced, under isofluorane anesthesia as previously described (van den Borne et al., 2009).

[2] = Wnt3a-induced luciferase activity, antagonists at 1.10^−9 M

## CSCC[C@H](NC(=O)CNC(=O)[C@H](CCC(=O)O)NC(=O)[C@H](CO)NC(=O)[C@@H](NC(=O)[C@H](CCCCN)NC(=O)[C@H](CC(N)=O)NC(=O)[C@H](CS)NC(C)=O)[C@@H](C)O)C(=O)N[C@@H](CC(=O)O)C(=O)NCC(=O)N[C@@H](CS)C(=O)N[C@@H](CCC(=O)O)C(=O)N[C@@H](CC(C)C)C(N)=O [UM206, Ac-Cys-Asn-Lys-Thr-Ser-Glu-Gly-Met-Asp-Gly-Cys-Glu-Leu-NH2] (Ac-CNKTSEGMDGCEL-NH2)
Canonical Wnt signaling
  IC50: in the nanomolar range
Canonical Wnt signaling; model of Example 1
  activity on the frizzled receptor: antagonist or agonist: very potent antagonist; also recorded: very potent inhibitor of the canonical Wnt signaling
Canonical Wnt signaling; without Wnt3a
  effect of the peptide by itself on luciferase activity: none of the three peptides by itself could induce an increase in luciferase activity; also recorded: no effect
frizzled-1 (rFzd-1); [2]
  % of inhibition for Fzd-1: 72.15%
frizzled-1 (rFzd-1); peptide 1.10^−8 M
  block of Wnt3a-induced luciferase activity, rFzd-1: blocked almost completely; also recorded: abolished the induction of luciferase activity almost completely
frizzled-2 (rFzd-2)
  selectivity frizzled-2 over frizzled-1: slightly more selective for frizzled-2 over frizzled-1
frizzled-2 (rFzd-2); [2]
  % of inhibition for Fzd-2: 75.06%
frizzled-2 (rFzd-2); peptide 1.10^−8 M
  block of Wnt3a-induced luciferase activity, rFzd-2: blocked almost completely; also recorded: abolished the induction of luciferase activity almost completely
hFzd-4
  effect on Wnt3a-induced luciferase activity, frizzled-4: no effect
[1]
  antagonizing the activation of mouse and human Fzd-1 and -2 by Wnt3a: fully effective
C-FIT cells
  effect on Wnt3a/Wnt5a-induced differentiation, α-SMA levels: completely blocks this differentiation
Myocardial infarction
  adverse effects of chronic administration: did not observe any adverse effects
  effects on other organs known to contain Fzd-2, including kidney and small intestine: did not observe any effects
